Experimental data taken from the supplement of paper PMC10307832.

How the values were obtained:
Experiment in all cases: relative viability (nuclei count vs DMSO), 5 days (fraction); higher = more cells survive
Selisistat + Vorinostat = compound: C1CC(C2=C(C1)C3=C(N2)C=CC(=C3)Cl)C(=O)N [Selisistat] + O=C(CCCCCCC(=O)Nc1ccccc1)NO [Vorinostat] (partner 1 µM)
How it was run: (§1)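 Lung cancer cell lines, seeded in 1536-well plates, were treated the following day by pin tool with a single drug or with five library-drug doses (not always all listed) in √10 steps on top of a fixed anchor-drug dose. Cells were fixed and nuclei stained in one step after 5 days, and nuclei were counted. Relative viability is the nuclei count for treated wells divided by that for vehicle wells, reported as medians of duplicate plates.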

Serdemetan + Tozasertib = compound: c1ccc2c(CCNc3ccc(Nc4ccncc4)cc3)c[nH]c2c1 [Serdemetan] + Cc1cc(Nc2cc(N3CCN(C)CC3)nc(Sc3ccc(NC(=O)C4CC4)cc3)n2)n[nH]1 [Tozasertib] (partner 0.1 µM)
How it was run: as §1

Serdemetan + Olaparib = compound: c1ccc2c(CCNc3ccc(Nc4ccncc4)cc3)c[nH]c2c1 [Serdemetan] + O=C(c1cc(Cc2n[nH]c(=O)c3ccccc23)ccc1F)N1CCN(C(=O)C2CC2)CC1 [Olaparib] (partner 8 µM)
How it was run: as §1

Serdemetan + Luminespib = compound: c1ccc2c(CCNc3ccc(Nc4ccncc4)cc3)c[nH]c2c1 [Serdemetan] + CCNC(=O)c1noc(-c2cc(C(C)C)c(O)cc2O)c1-c1ccc(CN2CCOCC2)cc1 [Luminespib] (partner 0.01 µM)
How it was run: as §1

| Cell Line | relative viability (Selisistat + Vorinostat; first compound 0.4 µM) | relative viability (Selisistat + Vorinostat; first compound 1.265 µM) | relative viability (Selisistat + Vorinostat; first compound 4 µM) | relative viability (Selisistat + Vorinostat; first compound 12.65 µM) | relative viability (Selisistat + Vorinostat; first compound 40 µM) | relative viability (Serdemetan + Tozasertib; first compound 0.04 µM) | relative viability (Serdemetan + Tozasertib; first compound 0.1265 µM) | relative viability (Serdemetan + Tozasertib; first compound 0.4 µM) | relative viability (Serdemetan + Tozasertib; first compound 1.265 µM) | relative viability (Serdemetan + Tozasertib; first compound 4 µM) | relative viability (Serdemetan + Olaparib; first compound 0.04 µM) | relative viability (Serdemetan + Olaparib; first compound 0.1265 µM) | relative viability (Serdemetan + Olaparib; first compound 0.4 µM) | relative viability (Serdemetan + Olaparib; first compound 1.265 µM) | relative viability (Serdemetan + Olaparib; first compound 4 µM) | relative viability (Serdemetan + Luminespib; first compound 0.04 µM) | relative viability (Serdemetan + Luminespib; first compound 0.1265 µM) | relative viability (Serdemetan + Luminespib; first compound 0.4 µM) | relative viability (Serdemetan + Luminespib; first compound 1.265 µM) | relative viability (Serdemetan + Luminespib; first compound 4 µM) |
| --- | --- | --- | --- | --- | --- | --- | --- | --- | --- | --- | --- | --- | --- | --- | --- | --- | --- | --- | --- | --- |
| NCI-H647 | 0.567 | 0.604 | 0.777 | 0.639 | 0.766 | 0.355 | 0.291 | 0.226 | 0.287 | 0.223 | 0.51 | 0.495 | 0.534 | 0.27 | 0.165 | 0.272 | 0.185 | 0.176 | 0.123 | 0.112 |
| NCI-H2023 | 0.662 | 0.786 | 0.784 | 0.674 | 0.853 | 0.377 | 0.359 | 0.309 | 0.298 | 0.153 | 0.512 | 0.459 | 0.323 | 0.152 | 0.203 | 0.818 | 0.857 | 0.721 | 0.334 | 0.193 |
| NCI-H23 | 0.647 | 0.597 | – | 0.663 | 0.802 | 0.436 | 0.413 | 0.358 | 0.305 | 0.265 | 0.314 | 0.364 | 0.298 | – | 0.231 | 0.219 | 0.223 | 0.214 | 0.211 | 0.196 |
| NCI-H1944 | 0.563 | 0.526 | 0.51 | 0.547 | 0.593 | 0.249 | 0.278 | 0.234 | 0.158 | 0.165 | 0.385 | 0.393 | 0.286 | 0.228 | 0.288 | 0.664 | 0.679 | 0.691 | 0.249 | 0.306 |
| NCI-H1793 | 0.899 | 0.679 | – | 0.88 | 0.781 | 0.332 | 0.298 | 0.268 | 0.255 | 0.186 | 0.814 | 0.73 | 0.547 | 0.316 | 0.285 | 0.17 | 0.186 | 0.343 | 0.169 | 0.165 |
| NCI-H520 | 0.722 | 0.705 | 0.814 | 0.592 | 0.794 | 0.42 | 0.413 | 0.441 | 0.329 | 0.313 | 0.335 | 0.347 | 0.27 | 0.199 | 0.26 | 0.255 | 0.204 | 0.232 | – | 0.205 |
| NCI-H460 | 0.691 | 0.772 | 0.808 | 0.723 | 0.807 | 0.647 | 0.403 | 0.399 | 0.402 | 0.12 | 0.342 | 0.344 | 0.349 | 0.182 | 0.148 | 0.0305 | 0.0294 | 0.0326 | 0.0303 | 0.0264 |
| EKVX | 0.708 | 0.757 | – | 0.903 | 0.655 | 0.424 | 0.426 | 0.327 | – | 0.29 | 0.852 | 0.851 | – | – | 0.66 | 0.947 | 0.925 | 0.861 | – | 0.585 |
| NCI-H358 | 0.766 | 0.636 | 0.686 | 0.778 | 0.8 | 0.0807 | 0.105 | 0.111 | 0.102 | 0.0954 | 0.582 | 0.507 | 0.626 | 0.595 | 0.464 | 0.63 | 0.351 | 0.254 | 0.465 | 0.207 |
| EPLC-272H | 0.453 | 0.729 | 0.52 | 0.529 | 0.693 | 0.269 | 0.309 | 0.306 | 0.169 | 0.249 | 0.837 | 0.883 | 0.714 | 0.676 | 0.641 | 0.307 | 0.401 | 0.373 | 0.252 | 0.602 |
| NCI-H1395 | 0.827 | 0.671 | – | 0.536 | 0.702 | 0.736 | 0.742 | 0.838 | 0.751 | 0.513 | 0.445 | 0.442 | 0.443 | 0.478 | 0.399 | 0.651 | 0.671 | 0.673 | 0.6 | 0.459 |
| NCI-H2126 | 0.865 | 0.792 | 0.691 | 0.861 | 0.845 | 0.867 | 0.874 | 0.786 | 0.832 | 0.79 | 0.885 | 0.914 | 0.855 | 0.724 | 0.751 | 0.983 | 0.964 | 0.9 | 0.88 | 1.01 |
| LXF-289 | 0.78 | 0.83 | 0.753 | 0.799 | 0.961 | 0.213 | 0.21 | 0.171 | 0.164 | 0.118 | 1.1 | 1.11 | 0.939 | 0.794 | 0.388 | 0.636 | 0.706 | 0.625 | 0.517 | 0.401 |
| NCI-H2009 | 0.774 | 0.786 | 0.77 | 0.741 | 0.793 | 0.7 | 0.712 | 0.705 | 0.675 | 0.625 | 0.777 | 0.687 | 0.688 | 0.496 | 0.497 | 0.925 | 0.979 | 0.997 | 1.01 | 0.888 |
| SW 900 | 0.684 | 0.705 | 0.518 | 0.747 | 0.781 | 0.494 | 0.413 | 0.441 | 0.329 | 0.359 | 1.03 | 0.892 | 0.861 | 0.691 | 0.459 | 0.185 | 0.168 | 0.196 | 0.164 | 0.176 |
| NCI-H2405 | 1.07 | 1.19 | – | 0.975 | 0.927 | 0.7 | 0.704 | 0.734 | 0.659 | 0.662 | 0.809 | 0.829 | 0.86 | 0.795 | 0.779 | 0.716 | 0.664 | 0.64 | 0.573 | 0.596 |
| NCI-H1755 | 0.831 | 0.903 | 0.975 | 0.766 | 0.928 | 0.568 | 0.625 | 0.55 | 0.435 | 0.354 | 0.867 | 0.769 | 0.648 | 0.493 | 0.448 | 0.417 | 0.43 | 0.568 | 0.39 | 0.343 |
